From EPA's ToxValDB 9.5 (doi:10.2903/j.efsa.2005.102r)
In brackets after ≈: the same amount, converted by molar mass.

How the values were obtained:
Daphnia magna = settings: chronic/long-term; duration: 21 days
Apis mellifera = settings: acute, duration: 48 hours, mortality
Canidae = settings: oral, Dog Other
Tagia sp. = settings: acute; mortality
Pontoscolex corethrurus = settings: chronic/long-term; reproduction
Gammarus pulex = settings: chronic/long-term; duration: 28 days
Colinus virginianus = settings: oral, diet
Folsomia candida = settings: chronic/long-term; duration: 28 days
Anas platyrhynchos = settings: reproductive, duration: 5 days, oral, feed
Typhlodromus pyri = experiment: LR50; higher = less toxic; settings: not reported; mortality
Aphidius rhopalosiphi = experiment: LR50; higher = less toxic; settings: not reported; mortality
[1] = acute, duration: 96 hours, mortality

**Q.** Which LD50 (Rattus norvegicus; acute, oral, mortality) does the source give for CO/N=C(/C1=NOCCO1)c1ccccc1Oc1ncnc(Oc2ccccc2Cl)c1F [Fluoxastrobin] here?
**A.** > 2000 mg/kg

**Q.** And the NOAEL (Rattus norvegicus; developmental, development)?
**A.** > 742 mg/kg-day

**Q.** And the NOEC (Daphnia magna)?
**A.** 0.18 mg/L

**Q.** And the LC50 (Neomysis kadiakensis; [1])?
**A.** 0.0604 µg/mL (≈ 0.132 µM)

**Q.** What about the NOEC (Neomysis kadiakensis; chronic/long-term, duration: 28 days) of the same molecule?
**A.** 0.00061 mg/L

**Q.** What about the LD50 (Apis mellifera; dermal) of the same molecule?
**A.** > 200 µg/piece

**Q.** What about the LD50 (Apis mellifera; oral, unspecified) of the same molecule?
**A.** > 843 µg/piece

**Q.** And the NOAEL (Canidae; chronic, duration: 1 years, clinical chemistry)?
**A.** 3 mg/kg-day

**Q.** And the NOAEL (Canidae; subchronic, duration: 90 days, body weight)?
**A.** 30 mg/kg-day

**Q.** What about the NOAEL (Canidae; subchronic, duration: 90 days, clinical chemistry) of the same molecule?
**A.** 3 mg/kg-day

**Q.** And the LC50 (Tagia sp.)?
**A.** > 500 mg/kg

**Q.** What about the NOEL (Pontoscolex corethrurus) of the same molecule?
**A.** 1.33 mg/kg

**Q.** What about the NOEC (Gammarus pulex) of the same molecule?
**A.** 0.0316 mg/L

**Q.** And the LC50 (Colinus virginianus; acute, duration: 5 days, mortality)?
**A.** > 966 mg/kg-day

**Q.** And the NOEC (Colinus virginianus; reproduction developmental, duration: 5 days)?
**A.** 151 mg/kg-day

**Q.** And the NOEL (Colinus virginianus; short-term, mortality)?
**A.** 2000 mg/kg-day

**Q.** And the NOEC (Folsomia candida)?
**A.** 5 mg/kg

**Q.** And the NOEC (Anas platyrhynchos)?
**A.** 285 mg/kg-day

**Q.** What about the LC50 (Anas platyrhynchos; mortality) of the same molecule?
**A.** > 2190 mg/kg-day

**Q.** What about the LC50 (Oncorhynchus mykiss; [1]) of the same molecule?
**A.** 0.435 µg/mL (≈ 0.948 µM)

**Q.** And the NOEC (Oncorhynchus mykiss; chronic/long-term, duration: 95 days, other)?
**A.** 0.0286 mg/L

**Q.** What about the LR50 (Typhlodromus pyri) of the same molecule?
**A.** 122 g/ha

**Q.** What about the LR50 (Aphidius rhopalosiphi) of the same molecule?
**A.** 34.1 g/ha
